Test results: patent US20260008746A1, “CATIONIC LIPID COMPOUND WITH HIGH EFFICIENCY, LOW TOXICITY AND STABLE EXPRESSION, AND COMPOSITION COMPRISNG SAME” (HANGZHOU TIANLONG PHARMACEUTICAL CO., LTD, priority 2023, published 2026)

Tests used:
BALB/C mice = test: In vivo imaging of Fluc-mRNA expression in mice delivered by LNP formulations; settings: for average radiation intensity, 6 h / average radiation intensity, 24 h / average radiation intensity, 48 h / average radiation intensity, 7 d: LNP containing 10 pg Fluc-mRNA, intramuscular, female BALB/C mice
Description: The LNP formulation containing […] Fluc-mRNA was injected intramuscularly into female BALB/C mice aged 4-6 weeks old and weighed 17-19 g, and the mice were intraperitoneally injected with fluorescent imaging substrate at specific time points after administration (6h, 24 h, 48h and 7d), where the mice were allowed to move freely for 5 minutes, and then the average radiation intensity (corresponding to fluorescence expression intensity) of the protein expression of the mRNA carried by the LNP in the mice was detected by the IVIS Spectrum small animal in vivo imaging device. The test results are shown in Tables 11 to 14 and FIGS. 12 to 14.

293T cells [1] = test: Fluorescent detection of Fluc-mRNA (cell transfection efficiency of LNP formulations); format: cell-based; settings: for Relative light unit (RLU): LNP formulation containing 0.3 μg Fluc-mRNA, 96-well plate, 24 hours; for Multiples (YK-101): RLU of YK-101 / RLU of named substance; for Multiples (YK-107): RLU of YK-107 / RLU of named substance; for Multiples (YK-108): RLU of YK-108 / RLU of named substance; for Ratio relative to SM-102: RLU of named substance / RLU of SM-102; for fluorescence absorption value, times that of HHMA: RLU of named substance / RLU of HHMA; for fluorescence absorption value, times that of Lipofectamine 3000: RLU of named substance / RLU of Lipofectamine 3000; for Fluc-mRNA expression signal intensity, times that of compound 21: RLU of named substance / RLU of compound 21; for fluorescence absorption value, times that of compound 23: RLU of named substance / RLU of compound 23
Description: (§1) Cell recovery and passage: 293T cells were recovered, cultured in a culture dish, and passaged to the required number of cells.
(§2) Seeding plate: The cells in the culture dish were digested and counted. Cells were spread in a 96-well plate at 10,000 cells per well and in a 12-well plate at 150,000 cells per well. Cells were cultured overnight until the cells adhered to the wall.
Cell recovery and passage: the method was the same as in Example 3.
Seeding plate: the method was the same as in Example 3.
An LNP formulation containing 0.3 μg of Fluc-mRNA (the carrier components of the LNP formulation were cationic lipid, neutral lipid, structured lipid and polymer-conjugated lipid with a molar ratio of 49:10:39.5:1.5, wherein the cationic lipid was listed in Table 1) was added to the cell culture medium of a 96-well plate, and further incubated for 24 hours. The corresponding reagent was added according to the instructions of the Gaussia Luciferase Assay Kit, and the fluorescence expression intensity of each well was detected by an IVIS fluorescence detection system. This test verified the transfection efficiencies of LNP formulations in cells, see Tables 3-6 for specific test results.

293T cells [2] = test: Cell survival rate determination (CCK-8); format: cell-based; settings: for Cell survival rate (%): LNP formulation containing 1.5 μg Fluc-mRNA, 24 hours, CCK-8, absorbance at 450 nm; for cell survival rate lower than that of YK-101: cell survival rate of YK-101 minus that of named substance; for cell survival rate lower than that of YK-107: cell survival rate of YK-107 minus that of named substance; for cell survival rate lower than that of YK-108: cell survival rate of YK-108 minus that of named substance
Description: as §1, §2
An LNP formulation containing 1.5 μg of Fluc-mRNA (the cater component of the LNP formulation were cationic lipid, neutral lipid, structured lipid and polymer-conjugated lipid with a molar ratio of 49: 10: 39.5: 1.5, wherein the cationic lipid was listed in Table 1) and the formulation of Lipofectamine 3000 were added to the cell culture medium of a 96-well plate, and further cultivated for 24 hours. 10 μL of CCK-8 solution was then added to each well, and the culture plate was incubated in an incubator for 1 hour. The absorbance at 450 nm was measured by a microplate reader.

[3] = highest multiple, time point not stated

Row | SMILES | average radiation intensity, 6 h (BALB/C mice; 6 h) | average radiation intensity, 24 h (BALB/C mice; 24 h) | average radiation intensity, 48 h (BALB/C mice; 48 h) | average radiation intensity, 7 d (BALB/C mice; 7 d) | Relative light unit (RLU) (293T cells [1]) | Multiples (YK-101) (293T cells [1]) | Multiples (YK-107) (293T cells [1]) | Multiples (YK-108) (293T cells [1]) | Ratio relative to SM-102 (293T cells [1]) | Cell survival rate (%) (293T cells [2]) | average radiation intensity of YK-101, times that of named substance (BALB/C mice; 6 h) | average radiation intensity of YK-107, times that of named substance (BALB/C mice; 6 h) | average radiation intensity of YK-108, times that of named substance (BALB/C mice; 6 h) | average radiation intensity of YK-101, times that of named substance (BALB/C mice; 24 h) | average radiation intensity of YK-107, times that of named substance (BALB/C mice; 24 h) | average radiation intensity of YK-108, times that of named substance (BALB/C mice; 24 h) | average radiation intensity of YK-101, times that of named substance (BALB/C mice; 48 h) | average radiation intensity of YK-107, times that of named substance (BALB/C mice; 48 h) | average radiation intensity of YK-108, times that of named substance (BALB/C mice; 48 h) | average radiation intensity of YK-101, times that of named substance (BALB/C mice; 7 d) | also measured
1 | CCCCCCCCCCOC(=O)CCCN(CCCO)CCCCCC(=O)OCC(CCCCCCCC)CCCCCCCC [YK-107, 2-octyldecyl 6-(4-(decyloxy)-4-oxobutyl)((3-hydroxypropyl)amino)hexanoate] | 1601250 | 1302640 | 226170 | 13288 | 22361210 RLU | 0.91 | 1.00 | 1.10 | 14.58 | 90.45% |  |  |  |  |  |  |  |  |  |  | 
2 | CCCCCCCCCCCOC(=O)CCCN(CCO)CCCCCCC(=O)OCCC(CCCCCC)CCCCCC [YK-108, 3-hexylnonyl 7-(4-(undecyloxy)-4-oxobutyl)((2-hydroxyethyl)amino)heptanoate] | 2017280 | 1406010 | 230360 | 14194 | 24660507 RLU | 0.82 | 0.91 | 1.00 | 16.07 | 89.86% |  |  |  |  |  |  |  |  |  |  | 
3 | CCCCCCCCC(CCCCCCCC)COC(=O)CCCCCN(CCO)CCCCCC(=O)OCCCSSCCCCC [YK-111] | 661800 | 99777 | 20312 | 5050 | 1328301 RLU | 15.31 | 16.83 | 18.57 | 0.87 | 75.76% | 2.3 times | 2.4 times | 3.0 times | 10.6 times | 13.1 times | 14.1 times | 9.2 times | 11.1 times | 11.3 times | 2.4 times | average radiation intensity of YK-107, times that of named substance (BALB/C mice; 7 d): 2.6 times; average radiation intensity of YK-108, times that of named substance (BALB/C mice; 7 d): 2.8 times; cell transfection efficiency, times that of YK-110 (293T cells [1]): 5 times; fluorescence absorption value, times that of HHMA (293T cells [1]): 0.65 times; fluorescence absorption value, times that of Lipofectamine 3000 (293T cells [1]): 1.24 times; Fluc-mRNA expression signal intensity, times that of compound 21 (293T cells [1]): 0.96 times; fluorescence absorption value, times that of compound 23 (293T cells [1]): 1.03 times; cell survival rate lower than that of YK-101 (293T cells [2]): 14.36%; cell survival rate lower than that of YK-107 (293T cells [2]): 14.69%; cell survival rate lower than that of YK-108 (293T cells [2]): 14.10%
4 | CCCCCCCCCCOC(=O)CCCN(CCCCCC(=O)OCCC(CCCCCC)CCCCCC)CC(O)CO (centres unmarked) [YK-114, 3-hexylnonyl 6-(4-(decyloxy)-4-oxobutyl)((2,3-dihydroxypropyl)amino)hexanoate] | 535760 | 93565 | 19004 | 5457 | 1418926 RLU | 14.33 | 15.76 | 17.38 | 0.92 | 68.33% | 2.8 times | 3.0 times | 3.8 times | 11.3 times | 13.9 times | 15.0 times | 9.8 times | 11.9 times | 12.1 times | 2.2 times | average radiation intensity of YK-107, times that of named substance (BALB/C mice; 7 d): 2.4 times; average radiation intensity of YK-108, times that of named substance (BALB/C mice; 7 d): 2.6 times; expression amount of mRNA in mice of YK-101, times that of named substance (BALB/C mice; [3]): up to 11 times; expression amount of mRNA in mice of YK-107, times that of named substance (BALB/C mice; [3]): ≤ 13 times; fluorescence absorption value, times that of HHMA (293T cells [1]): 0.69 times; fluorescence absorption value, times that of Lipofectamine 3000 (293T cells [1]): 1.32 times; Fluc-mRNA expression signal intensity, times that of compound 21 (293T cells [1]): 1.02 times; fluorescence absorption value, times that of compound 23 (293T cells [1]): 1.10 times; cell survival rate lower than that of YK-101 (293T cells [2]): 21.79%; cell survival rate lower than that of YK-107 (293T cells [2]): 22.12%; cell survival rate lower than that of YK-108 (293T cells [2]): 21.53%
5 | CCCCCCCCCCOC(=O)CCCN(CCCCCC(=O)OCCC(CCCCCC)CCCCCC)C1CCCC1O (centres unmarked) [YK-120, 3-hexylnonyl 6-(4-(decyloxy)-4-oxobutyl)((2-hydroxycyclopentyl)amino)hexanoate] | 559000 | 94779 | 20832 | 5052 | 1403572 RLU | 14.49 | 15.93 | 17.57 | 0.91 | 73.43% | 2.7 times | 2.9 times | 3.6 times | 11.1 times | 13.7 times | 14.8 times | 8.9 times | 10.9 times | 11.1 times | 2.4 times | average radiation intensity of YK-107, times that of named substance (BALB/C mice; 7 d): 2.6 times; average radiation intensity of YK-108, times that of named substance (BALB/C mice; 7 d): 2.8 times; fluorescence absorption value, times that of HHMA (293T cells [1]): 0.69 times; fluorescence absorption value, times that of Lipofectamine 3000 (293T cells [1]): 1.31 times; Fluc-mRNA expression signal intensity, times that of compound 21 (293T cells [1]): 1.01 times; fluorescence absorption value, times that of compound 23 (293T cells [1]): 1.09 times; cell survival rate lower than that of YK-101 (293T cells [2]): 16.69%; cell survival rate lower than that of YK-107 (293T cells [2]): 17.02%; cell survival rate lower than that of YK-108 (293T cells [2]): 16.43%
